Measured values as given in US6534490B1, “Unsaturated 14, 15-cyclopropanoandrostanes, method for the production thereof and pharmaceutical preparations containing said compounds” (Jenapharm GmbH & Co. KG., priority 1998, dated 2003).

Tests used:
Hershberger Test = assay type: in vivo
[1] = biological target: T1, progesterone receptor of the rabbit uterus (Oryctolagus cuniculus, UniProt P06186); test: Binding to the progesterone receptor of the rabbit uterus (reference substance progesterone)
T1 construct: from tissue; host or cells: rabbit uterus
T1 sequence (P06186 1-930): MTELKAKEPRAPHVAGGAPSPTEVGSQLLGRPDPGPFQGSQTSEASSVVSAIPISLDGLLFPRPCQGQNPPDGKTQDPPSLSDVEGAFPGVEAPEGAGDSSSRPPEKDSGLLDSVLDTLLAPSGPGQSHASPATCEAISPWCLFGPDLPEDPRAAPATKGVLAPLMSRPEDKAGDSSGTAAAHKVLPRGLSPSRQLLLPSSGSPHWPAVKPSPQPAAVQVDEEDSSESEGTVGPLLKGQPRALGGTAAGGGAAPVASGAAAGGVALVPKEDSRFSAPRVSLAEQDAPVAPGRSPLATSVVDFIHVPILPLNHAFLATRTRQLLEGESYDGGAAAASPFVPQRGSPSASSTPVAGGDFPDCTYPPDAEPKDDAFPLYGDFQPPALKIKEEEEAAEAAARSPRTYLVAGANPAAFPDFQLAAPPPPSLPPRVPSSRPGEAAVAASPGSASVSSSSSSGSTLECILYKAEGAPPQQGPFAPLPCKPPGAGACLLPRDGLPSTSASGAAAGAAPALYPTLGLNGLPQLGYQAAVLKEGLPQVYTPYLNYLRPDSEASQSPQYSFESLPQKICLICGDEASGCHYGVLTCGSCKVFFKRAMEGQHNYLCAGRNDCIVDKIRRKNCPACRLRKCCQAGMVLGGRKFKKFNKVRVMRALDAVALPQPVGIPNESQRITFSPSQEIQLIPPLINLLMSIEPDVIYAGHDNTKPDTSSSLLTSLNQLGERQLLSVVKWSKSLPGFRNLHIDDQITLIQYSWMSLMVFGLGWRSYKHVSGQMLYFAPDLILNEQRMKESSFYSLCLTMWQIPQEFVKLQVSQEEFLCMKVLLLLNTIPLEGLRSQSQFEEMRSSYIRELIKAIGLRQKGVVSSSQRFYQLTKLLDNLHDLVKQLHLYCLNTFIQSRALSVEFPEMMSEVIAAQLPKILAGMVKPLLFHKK

[2] = Pregnancy maintenance test; assay type: in vivo
[3] = biological target: T2, androgen receptor of the rat prostate (Rattus norvegicus, UniProt P15207); test: Binding to the androgen receptor of the rat prostate (reference substance R 1881); conditions: relative to reference substance R 1881 (17β-hydroxy-17α-methyl-estra-4,9,11-trien-3-one)
T2 construct: from tissue; host or cells: rat prostate
T2 sequence (P15207 1-902): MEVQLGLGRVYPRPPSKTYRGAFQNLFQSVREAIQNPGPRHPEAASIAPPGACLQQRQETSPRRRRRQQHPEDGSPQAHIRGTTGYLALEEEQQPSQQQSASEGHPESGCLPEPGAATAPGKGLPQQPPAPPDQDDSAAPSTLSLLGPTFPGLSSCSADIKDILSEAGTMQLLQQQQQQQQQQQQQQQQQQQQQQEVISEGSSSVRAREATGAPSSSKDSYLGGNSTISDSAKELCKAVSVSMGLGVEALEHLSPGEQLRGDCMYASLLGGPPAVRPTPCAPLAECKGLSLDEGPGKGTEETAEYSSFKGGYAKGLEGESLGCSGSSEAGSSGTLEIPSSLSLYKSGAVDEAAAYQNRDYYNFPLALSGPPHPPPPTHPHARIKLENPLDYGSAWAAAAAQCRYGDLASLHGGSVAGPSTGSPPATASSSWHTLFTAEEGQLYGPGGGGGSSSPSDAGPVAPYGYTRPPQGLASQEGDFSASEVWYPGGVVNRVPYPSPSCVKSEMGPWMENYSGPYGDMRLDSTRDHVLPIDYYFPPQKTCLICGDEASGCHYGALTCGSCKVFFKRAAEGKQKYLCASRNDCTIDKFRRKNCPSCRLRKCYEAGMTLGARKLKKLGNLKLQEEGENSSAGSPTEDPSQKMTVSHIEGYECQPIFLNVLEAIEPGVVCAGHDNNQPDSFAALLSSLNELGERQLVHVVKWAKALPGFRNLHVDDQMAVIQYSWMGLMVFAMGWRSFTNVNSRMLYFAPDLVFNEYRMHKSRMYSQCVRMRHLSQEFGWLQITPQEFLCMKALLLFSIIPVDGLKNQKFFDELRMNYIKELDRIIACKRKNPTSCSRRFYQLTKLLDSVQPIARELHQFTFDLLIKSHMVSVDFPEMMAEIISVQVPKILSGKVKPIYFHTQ

C[C@]12CCC(=O)C=C1CC[C@@H]1[C@@H]2CC[C@]2(C)[C@@H](O)C[C@@H]3C[C@]312 [J 1193, 17β-hydroxy-14α,15α-methylen-androst-4-en-3-one]
androgenic activity (Hershberger Test): significant androgenic activity
binding to the progesterone receptor [1]: virtually no binding
gestagenic action [2]: very little gestagenic action
binding to the androgen receptor [3]: 24±3%
